From ChEMBL document CHEMBL1201862, “PubChem BioAssay data set” (2004)
Activity calls are given as the source filed them.

Columns and labels:
INS1 [1] = test: beta-cell survival under cytokine stress – INS-1E, ATP luminescence, dry powder, dose response (AID 488844); format: functional, cell-based; details: Rattus norvegicus
INS1 [2] = test: suppression of NO production in INS-1E cells – cell-based, Griess absorbance, dry powder, dose response (AID 488866); format: functional; details: Rattus norvegicus
INS1 [3] = test: INS-1E mitochondrial potential loss inhibitors – cell-based, JC-1 fluorescence, dry powder, set 2, dose response (AID 488867); format: functional; details: Rattus norvegicus
INS1 [4] = test: suppression of NO production in INS-1E cells – cell-based, Griess absorbance, dry powder, set 2, dose response (AID 488868); format: functional; details: Rattus norvegicus
INS1 [5] = test: INS-1E mitochondrial potential rescue under cytokines – cell-based, JC-1 fluorescence ratio, dry powder, dose response (AID 488931); format: functional; details: Rattus norvegicus
[6] = target: Eukaryotic translation initiation factor 4H (Homo sapiens, UniProt Q15056); test: eIF4H binding inhibition – biochemical, uHTS, fluorescence polarization, translation initiation inhibitor project, primary screen (AID 2012)
[7] = target: Polyadenylate-binding protein 1 (Homo sapiens, UniProt P11940); test: blockers of PABP interaction with poly(A) – biochemical, fluorescence polarization, […] (AID 2014)
[8] = target: T1, DNA dC->dU-editing enzyme APOBEC-3A (Homo sapiens, UniProt P31941); test: Dose Response confirmation of small molecule APOBEC3A DNA Deaminase Inhibitors via a fluorescence-based single-stranded DNA deaminase assay. [Related pubchem assays (depositor defined):AID493011, AID493024]; format: functional
[9] = target: T2, DNA dC->dU-editing enzyme APOBEC-3G (Homo sapiens, UniProt Q9HC16); format: functional;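 note: Dose-response counterscreen measuring inhibition of APOBEC3G DNA deaminase activity, run while confirming APOBEC3A inhibitors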
[10] = target: T2, DNA dC->dU-editing enzyme APOBEC-3G; test: inhibition of APOBEC3G ssDNA deamination – biochemical, fluorescence, single-stranded DNA substrate, SAR follow-up (AID 602136); format: functional; details: read-out: IC50_Mean
[11] = target: T1, DNA dC->dU-editing enzyme APOBEC-3A; test: SAR analysis of small molecule inhibitors of APOBEC3A DNA Deaminase via a fluorescence-based single-stranded DNA deaminase assay.; format: functional; details: read-out: IC50_Mean

T2 sequence (Q9HC16 whole entry): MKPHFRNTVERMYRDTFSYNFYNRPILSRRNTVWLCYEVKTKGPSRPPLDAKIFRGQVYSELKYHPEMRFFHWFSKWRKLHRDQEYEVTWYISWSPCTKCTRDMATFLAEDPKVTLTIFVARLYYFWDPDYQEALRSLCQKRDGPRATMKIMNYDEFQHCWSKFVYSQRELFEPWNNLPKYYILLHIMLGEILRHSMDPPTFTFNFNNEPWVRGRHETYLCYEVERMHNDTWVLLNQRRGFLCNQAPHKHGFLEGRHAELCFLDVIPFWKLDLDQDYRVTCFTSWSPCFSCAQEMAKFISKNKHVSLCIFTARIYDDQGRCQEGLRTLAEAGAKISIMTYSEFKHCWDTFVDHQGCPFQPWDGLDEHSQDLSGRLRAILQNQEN
T1 sequence (P31941 whole entry): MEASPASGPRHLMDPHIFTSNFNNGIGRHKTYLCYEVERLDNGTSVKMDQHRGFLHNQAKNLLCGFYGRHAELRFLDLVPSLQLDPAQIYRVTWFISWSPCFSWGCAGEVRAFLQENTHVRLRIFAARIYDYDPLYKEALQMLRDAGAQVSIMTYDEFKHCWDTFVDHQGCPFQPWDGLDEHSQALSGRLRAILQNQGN
Sequence of Polyadenylate-binding protein 1 (P11940 whole entry): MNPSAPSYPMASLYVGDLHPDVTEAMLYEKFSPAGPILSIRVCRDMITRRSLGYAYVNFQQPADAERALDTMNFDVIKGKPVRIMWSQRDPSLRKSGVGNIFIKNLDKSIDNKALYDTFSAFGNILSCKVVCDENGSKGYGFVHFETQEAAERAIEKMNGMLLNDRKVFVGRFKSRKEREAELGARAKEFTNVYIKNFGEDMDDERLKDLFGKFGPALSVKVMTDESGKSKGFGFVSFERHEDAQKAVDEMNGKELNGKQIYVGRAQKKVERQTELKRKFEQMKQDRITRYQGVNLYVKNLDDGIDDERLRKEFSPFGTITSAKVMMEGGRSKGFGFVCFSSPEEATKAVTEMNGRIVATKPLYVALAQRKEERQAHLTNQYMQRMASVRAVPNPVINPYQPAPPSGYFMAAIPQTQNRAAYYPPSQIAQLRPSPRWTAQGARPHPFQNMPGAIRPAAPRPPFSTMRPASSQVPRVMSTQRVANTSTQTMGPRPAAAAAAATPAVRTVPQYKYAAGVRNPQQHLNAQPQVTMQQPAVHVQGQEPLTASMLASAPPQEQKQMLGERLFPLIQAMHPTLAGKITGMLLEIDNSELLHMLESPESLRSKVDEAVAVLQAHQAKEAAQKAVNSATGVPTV

IC50 [6]	IC50 [7]	IC50 [8]	IC50 [9]	IC50 [10]	IC50 [11]	Compound	AC50 (INS1 [1])	AC50 (INS1 [2])	AC50 (INS1 [3])	AC50 (INS1 [4])	AC50 (INS1 [5])
–	–	–	–	–	–	C[C@@H]1CN([C@@H](C)CO)C(=O)c2cccc(NC(=O)Nc3cccc4ccccc34)c2O[C@H]1CN(C)S(=O)(=O)c1ccc(Cl)cc1	31.1 µM (active)	> 195 µM (inactive)	90.1 µM (active)	44.2 µM (active)	41.3 µM (active)
> 100 µM (inactive)	10.3 µM (active)	4.97 µM (active)	6.8 µM (active)	> 99 µM (inactive)	43 µM (inactive)	CC1(C)Oc2ccc3ccc(=O)oc3c2C(/C=N/O)=C1Cl	–	–	–	–	–
